Test results taken from patent US9738902B2, “Modified PYR/PYL receptors activated by ligands” (priority 2013, dated 2017).

How the values were obtained:
Type in all cases: cell-based
[1] = target: T1, PYR1 K59R A160C (Arabidopsis thaliana, UniProt O49686, A160C/K59R); experiment: Y2H Pocket Library Screen (HAB1, X-gal)
T1 construct: expressed in transfected cells; host or cells: S. cerevisiae Y190
Method: (§1) The set of 475 mutant plasmids were individually transformed into the Y190 yeast two hybrid reporter strain co-transformed with pACT-HAB1, as previously described (Park et al., 2009). The yeast strains generated were arrayed into 96-well plates yielding what we refer to as the “pocket library”. The pocket library strains were spotted onto agar plates containing selective synthetic dextrose (minus Leu & Trp) medium that was supplemented with a single test compound at 100 μM. The pocket library strains were separately tested for responsiveness to the following compounds: dichlobenil, benzothiadiazole, mandipropamid, fludioxonil, and benoxacor. After incubating test plates at 30° C. for two days, colonies were chloroform lysed and stained to reveal β-galactosidase expression levels, using previously described methods (Park et al., 2009). Mutants displaying responsiveness to the test compound, if present, were identified by virtue of X-gal staining and then subjected to subsequent optimization efforts. Using this approach we identified mutations that conferred detectable sensitivity to the compounds tested (see entries labeled “Pocket Library Screens” in Table 1).

[2] = target: T2, PYR1 K59R E141Y (Arabidopsis thaliana, UniProt O49686, E141Y/K59R); experiment: Y2H Pocket Library Screen (HAB1, X-gal)
T2 construct: expressed in transfected cells; host or cells: S. cerevisiae Y190 two-hybrid reporter strain
Method: as §1

[3] = target: T3, PYR1 K59R E94A (Arabidopsis thaliana, UniProt O49686, E94A/K59R); experiment: Y2H Pocket Library Screen (HAB1, X-gal)
T3 construct: expressed in transfected cells; host or cells: S. cerevisiae Y190 yeast two-hybrid reporter strain
Method: as §1

[4] = target: T4, PYR1 K59R E94D (Arabidopsis thaliana, UniProt O49686, E94D/K59R); experiment: Y2H Pocket Library Screen (HAB1, X-gal)
T4 construct: expressed in transfected cells; host or cells: S. cerevisiae Y190 yeast two-hybrid reporter strain
Method: as §1

[5] = target: T5, PYR1 K59R E94S (Arabidopsis thaliana, UniProt O49686, E94S/K59R); experiment: Y2H Pocket Library Screen (HAB1, X-gal)
T5 construct: expressed in transfected cells; host or cells: S. cerevisiae Y190 yeast two-hybrid reporter strain
Method: as §1

[6] = target: T6, PYR1 K59R F108L (Arabidopsis thaliana, UniProt O49686, F108L/K59R); experiment: Y2H Pocket Library Screen (HAB1, X-gal)
T6 construct: expressed in transfected cells; host or cells: S. cerevisiae Y190 yeast two-hybrid reporter strain
T6 sequence (O49686 whole entry K59R/F108L): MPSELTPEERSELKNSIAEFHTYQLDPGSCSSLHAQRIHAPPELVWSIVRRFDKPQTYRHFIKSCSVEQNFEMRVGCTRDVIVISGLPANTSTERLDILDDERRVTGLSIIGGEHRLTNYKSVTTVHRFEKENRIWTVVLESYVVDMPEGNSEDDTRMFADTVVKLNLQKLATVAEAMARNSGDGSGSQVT
T6 sequence (Q9CAJ0 23-511 partner): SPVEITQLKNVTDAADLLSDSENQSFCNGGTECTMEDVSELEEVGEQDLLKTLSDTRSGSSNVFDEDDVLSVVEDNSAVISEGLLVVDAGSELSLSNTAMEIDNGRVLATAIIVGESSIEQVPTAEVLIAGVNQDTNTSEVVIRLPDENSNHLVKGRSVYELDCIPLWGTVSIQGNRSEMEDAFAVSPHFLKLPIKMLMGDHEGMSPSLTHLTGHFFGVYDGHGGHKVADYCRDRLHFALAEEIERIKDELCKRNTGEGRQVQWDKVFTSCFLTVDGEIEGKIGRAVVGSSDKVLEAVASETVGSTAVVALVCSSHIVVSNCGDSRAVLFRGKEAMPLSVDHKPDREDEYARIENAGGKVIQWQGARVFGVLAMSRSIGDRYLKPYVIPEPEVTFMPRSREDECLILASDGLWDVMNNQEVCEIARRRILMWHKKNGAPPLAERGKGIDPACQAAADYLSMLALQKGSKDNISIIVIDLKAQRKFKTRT
Method: as §1

[7] = target: T7, PYR1 K59R F159A (Arabidopsis thaliana, UniProt O49686, F159A/K59R); experiment: Y2H Pocket Library Screen (HAB1, X-gal)
T7 construct: expressed in transfected cells; host or cells: S. cerevisiae Y190 two-hybrid reporter strain
Method: as §1

[8] = target: T8, PYR1 K59R F159T (Arabidopsis thaliana, UniProt O49686, F159T/K59R); experiment: Y2H Pocket Library Screen (HAB1, X-gal)
T8 construct: expressed in transfected cells; host or cells: S. cerevisiae Y190
Method: as §1

[9] = target: T9, PYR1 K59R F159V (Arabidopsis thaliana, UniProt O49686, F159V/K59R); experiment: Y2H Pocket Library Screen (HAB1, X-gal)
T9 construct: expressed in transfected cells; host or cells: S. cerevisiae Y190
T9 sequence (O49686 whole entry K59R/F159V): as the sequence (O49686 whole entry K59R/F108L) above, with L108F, F159V counted along it
T9 sequence (Q9CAJ0 23-511, further chain): as the sequence (Q9CAJ0 23-511 partner) above
Method: as §1

[10] = target: T10, PYR1 K59R L87F (Arabidopsis thaliana, UniProt O49686, K59R/L87F); experiment: Y2H Pocket Library Screen (HAB1, X-gal)
T10 construct: expressed in transfected cells; host or cells: S. cerevisiae Y190 yeast two-hybrid reporter strain
Method: as §1

[11] = target: T11, PYR1 K59R L87P (Arabidopsis thaliana, UniProt O49686, K59R/L87P); experiment: Y2H Pocket Library Screen (HAB1, X-gal)
T11 construct: expressed in transfected cells; host or cells: S. cerevisiae Y190 yeast two-hybrid reporter strain
T11 sequence (O49686 whole entry K59R/L87P): as the sequence (O49686 whole entry K59R/F108L) above, with L87P, L108F counted along it
T11 sequence (Q9CAJ0 23-511 partner): as the sequence (Q9CAJ0 23-511 partner) above
Method: as §1

[12] = target: T12, PYR1 K59R M158C (Arabidopsis thaliana, UniProt O49686, K59R/M158C); experiment: Y2H Pocket Library Screen (HAB1, X-gal)
T12 construct: expressed in transfected cells; host or cells: S. cerevisiae Y190 two-hybrid reporter strain
Method: as §1

[13] = target: T13, PYR1 K59R M158I (Arabidopsis thaliana, UniProt O49686, K59R/M158I); experiment: Y2H Pocket Library Screen (HAB1, X-gal)
T13 construct: expressed in transfected cells; host or cells: S. cerevisiae Y190 two-hybrid reporter strain
Method: as §1

[14] = target: T14, PYR1 K59R M158T (Arabidopsis thaliana, UniProt O49686, K59R/M158T); experiment: Y2H Pocket Library Screen (HAB1, X-gal)
T14 construct: expressed in transfected cells; host or cells: S. cerevisiae Y190 two-hybrid reporter strain
Method: as §1

[15] = target: T15, PYR1 K59R M158V (Arabidopsis thaliana, UniProt O49686, K59R/M158V); experiment: Y2H Pocket Library Screen (HAB1, X-gal)
T15 construct: expressed in transfected cells; host or cells: S. cerevisiae Y190 two-hybrid reporter strain
Method: as §1

[16] = target: T16, PYR1 K59R N167C (Arabidopsis thaliana, UniProt O49686, K59R/N167C); experiment: Y2H Pocket Library Screen (HAB1, X-gal)
T16 construct: expressed in transfected cells; host or cells: S. cerevisiae Y190 two-hybrid reporter strain
Method: as §1

[17] = target: T17, PYR1 K59R N167H (Arabidopsis thaliana, UniProt O49686, K59R/N167H); experiment: Y2H Pocket Library Screen (HAB1, X-gal)
T17 construct: expressed in transfected cells; host or cells: S. cerevisiae Y190 two-hybrid reporter strain
Method: as §1

[18] = target: T18, PYR1 K59R N167V (Arabidopsis thaliana, UniProt O49686, K59R/N167V); experiment: Y2H Pocket Library Screen (HAB1, X-gal)
T18 construct: expressed in transfected cells; host or cells: S. cerevisiae Y190 two-hybrid reporter strain
Method: as §1

[19] = target: T19, PYR1 K59R S92F (Arabidopsis thaliana, UniProt O49686, K59R/S92F); experiment: Y2H Pocket Library Screen (HAB1, X-gal)
T19 construct: expressed in transfected cells; host or cells: S. cerevisiae Y190 yeast two-hybrid reporter strain
T19 sequence (O49686 whole entry K59R/S92F): as the sequence (O49686 whole entry K59R/F108L) above, with S92F, L108F counted along it
T19 sequence (Q9CAJ0 23-511 partner): as the sequence (Q9CAJ0 23-511 partner) above
Method: as §1

[20] = target: T20, PYR1 K59R T162W (Arabidopsis thaliana, UniProt O49686, K59R/T162W); experiment: Y2H Pocket Library Screen (HAB1, X-gal)
T20 construct: expressed in transfected cells; host or cells: S. cerevisiae Y190
Method: as §1

[21] = target: T21, PYR1 K59R V164K (Arabidopsis thaliana, UniProt O49686, K59R/V164K); experiment: Y2H Pocket Library Screen (HAB1, X-gal)
T21 construct: expressed in transfected cells; host or cells: S. cerevisiae Y190
Method: as §1

[22] = target: T22, PYR1 K59R V81I (Arabidopsis thaliana, UniProt O49686, K59R/V81I); experiment: Y2H Pocket Library Screen (HAB1, X-gal)
T22 construct: expressed in transfected cells; host or cells: S. cerevisiae Y190 yeast two-hybrid reporter strain
Method: as §1

[23] = target: T23, PYR1 K59R V81Y (Arabidopsis thaliana, UniProt O49686, K59R/V81Y); experiment: Y2H Pocket Library Screen (HAB1, X-gal)
T23 construct: expressed in transfected cells; host or cells: S. cerevisiae Y190 yeast two-hybrid reporter strain
Method: as §1

[24] = target: T24, PYR1 K59R V83L (Arabidopsis thaliana, UniProt O49686, K59R/V83L); experiment: Y2H Pocket Library Screen (HAB1, X-gal)
T24 construct: expressed in transfected cells; host or cells: S. cerevisiae Y190 yeast two-hybrid reporter strain
Method: as §1

[25] = target: T25, PYR1 K59R Y120A (Arabidopsis thaliana, UniProt O49686, K59R/Y120A); experiment: Y2H Pocket Library Screen (HAB1, X-gal)
T25 construct: expressed in transfected cells; host or cells: S. cerevisiae Y190 two-hybrid reporter strain
Method: as §1

[26] = target: T26, PYR1 K59R Y120F (Arabidopsis thaliana, UniProt O49686, K59R/Y120F); experiment: Y2H Pocket Library Screen (HAB1, X-gal)
T26 construct: expressed in transfected cells; host or cells: S. cerevisiae Y190 two-hybrid reporter strain
Method: as §1

[27] = target: T27, PYR1 K59R Y120G (Arabidopsis thaliana, UniProt O49686, K59R/Y120G); experiment: Y2H Pocket Library Screen (HAB1, X-gal)
T27 construct: expressed in transfected cells; host or cells: S. cerevisiae Y190 two-hybrid reporter strain
Method: as §1

[28] = target: T28, PYR1 K59R Y120M (Arabidopsis thaliana, UniProt O49686, K59R/Y120M); experiment: Y2H Pocket Library Screen (HAB1, X-gal)
T28 construct: expressed in transfected cells; host or cells: S. cerevisiae Y190 two-hybrid reporter strain
T28 sequence (O49686 whole entry K59R/Y120M): as the sequence (O49686 whole entry K59R/F108L) above, with L108F, Y120M counted along it
T28 sequence (Q9CAJ0 23-511 partner): as the sequence (Q9CAJ0 23-511 partner) above
Method: as §1

[29] = target: T29, PYR1 K59R E94A N167C (Arabidopsis thaliana, UniProt O49686, E94A/K59R/N167C); experiment: Y2H Combinatorial Mutagenesis Screen I (HAB1, X-gal)
T29 construct: expressed in transfected cells; host or cells: S. cerevisiae Y190 two-hybrid reporter strain
From the text: (§2) This screening approach yielded mutants at ligand contacting residues that alter sensitivity to specific ligands. We reasoned that receptor sensitivity could be improved by systematically constructing combinations of the best mutant variants identified in the first round of screening. To test this, we constructed mutant combinations using the strongest mutations identified for mandipropamid, benzothiadiazole, benoxacor or fludioxonil sensitivity. The mutations selected for combinatorial mutagenesis are listed in bold type in Table 1; The mutant combinations were constructed using the QuickChange Lightning Multi Site-Directed PCR Mutagenesis kit (Agilent, USA) using pBD-PYR1^K59R template DNA and mutagenic primers, essentially as previously described (Mosquna et al., 2011). The mutant combinations were sequence validated, introduced into the pACT-HAB1 Y190 reporter strain and then tested for responsiveness to a range of compound concentrations (100, 50, 25, 10, 1, 0.2, 0.1 or 0 μM each test compound). These efforts yielded double mutant receptor variants with improved sensitivity for the 4 compound/receptor pairs examined (see entries labeled “Combinatorial Mutagenesis Screen I” in Table 1).

[30] = target: T30, PYR1 K59R E94A Y120A (Arabidopsis thaliana, UniProt O49686, E94A/K59R/Y120A); experiment: as above
T30 construct: expressed in transfected cells; host or cells: S. cerevisiae Y190 two-hybrid reporter strain
T30 sequence (O49686 whole entry K59R/E94A/Y120A): as the sequence (O49686 whole entry K59R/F108L) above, with E94A, L108F, Y120A counted along it
T30 sequence (Q9CAJ0 23-511 partner): as the sequence (Q9CAJ0 23-511 partner) above
From the text: as §2

[31] = target: T31, PYR1 K59R Y120A E141Y (Arabidopsis thaliana, UniProt O49686, E141Y/K59R/Y120A); experiment: as above
T31 construct: expressed in transfected cells; host or cells: S. cerevisiae Y190 two-hybrid reporter strain
From the text: as §2

[32] = target: T32, PYR1 K59R Y120A N167C (Arabidopsis thaliana, UniProt O49686, K59R/N167C/Y120A); experiment: as above
T32 construct: expressed in transfected cells; host or cells: S. cerevisiae Y190 two-hybrid reporter strain
From the text: as §2

Measured: Threshold

T1 sequence (O49686 whole entry K59R/A160C): as the sequence (O49686 whole entry K59R/F108L) above, with L108F, A160C counted along it
T1 sequence (Q9CAJ0 23-511 partner): as the sequence (Q9CAJ0 23-511 partner) above

N#Cc1c[nH]cc1-c1cccc2c1OC(F)(F)O2 [Fludioxonil, fludioxonil]
1 µM: [3]
10 µM: [29] | [30] | [31] | [32]
100 µM: all other assays above
